Experimental data taken from patent US6620850B2, “Materials and methods for treatment of neurological disorders involving overactivation of glutamatergic ionotropic receptors” (University of Florida, priority 2001, dated 2003).

Tests used:
Parkinson's disease = conditions: oral administration, patients; cited from earlier work
[1] = system: GluR-mediated miniature excitatory postsynaptic currents (mEPSCs) in hippocampal neurons; assay: mEPSCs in cultured rat hippocampal neurons, whole-cell patch clamp (normoxia); assay type: cell-based; conditions: for effect on GluR-mediated mEPSCs: cultured hippocampal neurons, normoxia, in presence of MK-801
[2] = versus 55-60 μM in healthy patients; cited from earlier work
cocaine dependence = conditions: orally administered, patients; cited from earlier work

## N[C@H](Cc1ccccc1)C(=O)O [D-phenylalanine]
Parkinson's disease
  clinical benefit in Parkinson's disease: conferred some benefit

## N[C@@H](Cc1ccccc1)C(=O)O [L-Phe, L-phenylalanine]
[1]; L-Phe 0.1-3 mM, normalized to control, 5 to 8 cells, P<0.01 compared to control
  effect on frequency of mEPSCs (concentration-dependence): concentration-dependence of attenuation of the frequency of mEPSCs
[1]
  effect on GluR-mediated mEPSCs: significantly and reversibly attenuate
[2]
  blood concentration of L-Phe causing phenylketonuria (PKU): > 1200 µM

## N[C@@H](Cc1c[nH]c2ccccc12)C(=O)O [L-Trp, L-Tryptophan]
[1]
  effect on GluR-mediated mEPSCs: significantly and reversibly attenuate

## N[C@@H](Cc1ccc(O)cc1)C(=O)O [L-Tyr, L-tyrosine]
[1]
  effect on GluR-mediated mEPSCs: significantly and reversibly attenuate

## N[C@@H](Cc1ccc(O)cc1)C(=O)O [tyrosine]
Cocaine dependence
  clinical benefit in cocaine dependence: did not confer a benefit
